For data set [1] the following is noted: PAMPA; for −log Pe: pH 7.4. As to the method:
(§1) 5 Parallel Artificial Membrane Permeability Assay (PAMPA)
(§2) PAMPA analysis was conducted following a procedure reported by Lokey and coworkers. 9 Each measurement was conducted at room temperature in an insulated polystyrene box to maintain a constant internal temperature. Measurements were taken in triplicate, and the reported permeability values are the average value over the three runs. Carbamaz epine was included in the stock solution of each cyclic peptide to verify the integrity of the membrane as an internal standard.
(§3) Preparation of stock solution for donor well: Stock solutions were prepared by dissolving the […]
cyclic peptide (0.5 mM) and carbamazepine (0.5 mM) (as an internal standard) in DMSO at a gross […]
concentration of 1 mM. 10 μL of this stock solution was added to 990 μL PBS buffer (pH 7.4) to […]
give a 1 mL solution (10 μM, 1% DMSO v/v) for addition to the donor plate wells.
Preparation of acceptor plate: A stock solution of 5% DMSO in PBS buffer was prepared, and […]
300μL of this solution was added to each of the acceptor wells (96-well Teflon acceptor plate […]
Preparation of donor plate: 100 mg of lethicin (90%, soybean) was suspended in n -dodecane (10 […]
mL) and sonicated to give a homogenous, clear solution. 5 μL of this solution was carefully applied […]
to the membrane in the 96-well donor plate (with 0.45 μm hydrophobic Immobilon-P membrane […]
supports (Millipore MAIPNTR10)) (with care, without touching the membrane). Shortly after (~5 - […]
15 min), 150 μL of the 10 μM stock solution of cyclic peptide and carbamazepine (prepared as […]
above) were added to the donor well. The donor plate was placed on top of the acceptor wells and […]
(PAMPA measures passive passage across an artificial lipid membrane.)

A short description of data set [2]: Relative hydrophobicity by reverse-phase HPLC retention time. In kind it is physicochemical. To be noted: C18 LC-MS, gradient 95%/5% MeCN to 100% MeCN over 15 min; measure of relative lipophilicity. From the text:
To provide additional evidence for this hypothesis, we used the retention time on reverse phase HPLC as a measure of the overall relative lipophilicity. […] Overall, the more lipophilic cyclic peptides had more efficient cell penetration than the more hydrophilic ones.

The test system of data set [3] is HeLa cells stably expressing the HaloTag-GFP-Mito construct. Description: Chloroalkane Penetration Assay (CAPA). In kind it is cell-based. From the text: Cell-based assays such as the Caco-2 assay and Madin–Darby canine kidney cell line (MDCK) permeability assay have been employed to offer a fuller assessment of transport in vitro.[22,23] The chloroalkane penetration assay (CAPA) is a relatively recent methodology for measuring cell penetration in live cells (Fig. 1d).[24] This assay uses cells that express a modified haloalkane dehalogenase known as HaloTag that reacts rapidly, selectively, and irreversibly with small chloroalkane ligands.[25,26] CAPA measures cytosolic penetration by pulsing cells with a chloroalkane-tagged compound (ct-compound), then chasing with a chloroaklane-tagged dye (ct-dye). If the ct-compound penetrates the cell and escapes from endosomes, it reacts with HaloTag and blocks the reaction with the ct-dye in the subsequent chase step. Thus, in CAPA, cell penetration of the ct-molecule is inversely proportional to the signal from the ct-dye retained in the cells. The dose dependence of this signal can be fit to a sigmoidal curve, whose midpoint value (called the CP50) can be compared among ct-compounds as a quantitative comparison of cell penetration.[27,28] CAPA is a cost-effective and high-throughput method for measuring the cell penetration of cyclic peptides and other molecules, and it establishes penetration to the cytosol without interference from material trapped in endosomes. In this work, we use CAPA to investigate the cell penetration of Odz macrocycles.
3 Chloroalkane Penetration Assay (CAPA)
Media was aspirated and cells were
washed with serum-free media.
Lysate stability assays were performed essentially as described. 8 For lysate stability assays, HeLa

A further data set can be described thus: in vitro. As to the method: (1 picture or pasted object on this page, not shown here) […]
were taken at each time point and quenched in 160 μL of ice-cold methanol. Samples were spun down for 10 min at 21,000 g prior to analysis by reverse phase analytical HPLC on a C18 column.
Chromatogram peaks were integrated to measure amount of peptide remaining at each time point.
Peak volumes for each timepoint were normalized to the zero-hour timepoint to determine percentage of peptide remaining. Data presented are the average of three biological replicates performed with different lysates on different days.
as §1, §2, §3

The results in this text go back to publication PMC10989506, “Cell penetration of oxadiazole-containing macrocycles” (RSC Chemical Biology, 2024).

Several values for one entry are separate records, joined by “and”; a condition that tells them apart may be missing. Equal values may be shown once. *1 amine or outer side, *2 acyl side, *3 side chain or, on linkers, in order; H or OH if unused. Where a SMILES comes first, the peptide text is derived from it. Side-chain parts run from the residue outwards. The star is where a group is joined. NH(CH2CH2O)2(CH2)6Cl = ClCCCCCCOCCOCCN*; Suc = O=C(CCC(=O)[*:2])[*:1] Some results are limits rather than exact numbers.

As for `CC[C@H]1C2=NN=C(O2)[C@H](Cc2ccccc2)NC(=O)CNC(=O)[C@H](CCCCNC(=O)CCC(=O)NCCOCCOCCCCCCCl)NC(=O)CNC(=O)[C@@H]2CCCN21` [Compound 2], in data set [1], the “−log Pe” value came out at 7.92 ± 0.07.

Turning to `CC[C@H]1C2=NN=C(O2)[C@H](Cc2ccccc2)NC(=O)CNC(=O)[C@H](CC(C)C)NC(=O)[C@H](CCCCNC(=O)CCC(=O)NCCOCCOCCCCCCCl)NC(=O)[C@@H]2CCCN21` [Compound 3], in data set [1], the “−log Pe” value was found to be 7.84 ± 0.04. Still for that read-out and setting: with `CC[C@@H]1N[C@@H](CCCCNC(=O)CCC(=O)NCCOCCOCCCCCCCl)C(=O)NCC(=O)N[C@@H](CC(C)C)C(=O)NCC(=O)N[C@@H](Cc2ccccc2)C2=NN=C1O2` [Compound 4] the figure was 7.85 ± 0.052; with `CC[C@H]1C2=NN=C(O2)[C@H](CCCCNC(=O)CCC(=O)NCCOCCOCCCCCCCl)NC(=O)CNC(=O)[C@H](CC(C)C)NC(=O)CNC(=O)[C@@H]2CCCN21` [Compound 5], over 8; with `CC[C@H]1C2=NN=C(O2)[C@H](Cc2ccccc2)NC(=O)[C@H](CCCCNC(=O)CCC(=O)NCCOCCOCCCCCCCl)NC(=O)[C@H](CC(C)C)NC(=O)[C@H](CC(=O)O)NC(=O)[C@@H]2CCCN21` [Compound 6], over 8.

Turning to `CC[C@H]1C2=NN=C(O2)[C@H](Cc2ccccc2)NC(=O)[C@H](CCCCNC(=O)CCC(=O)NCCOCCOCCCCCCCl)NC(=O)[C@H](CC(=O)O)NC(=O)[C@H](CC(=O)O)NC(=O)[C@@H]2CCCN21` [Compound 7], the “−log Pe” value in data set [1] is over 8. As for `CC(C)C[C@@H]1NC(=O)CNC(=O)[C@@H]2CCCN2C(=O)[C@H](C)NC(=O)[C@H](Cc2ccccc2)NC(=O)[C@H](CCCCNC(=O)CCC(=O)NCCOCCOCCCCCCCl)NC1=O` [Compound 8] (cyclo(PGLK([Suc-NH(CH2CH2O)2(CH2)6Cl])FA)), in data set [2], the T ret is 7.95 min. Moreover, the “cell penetration, fold worse than compound 1” value in data set [3] (CAPA CP50 compared with compound 1) is given as “more than 20 fold”. Further, the “CP50 after 30 min incubation” value in data set [3] (ct-peptides incubated with cells in Opti-MEM for 30 min prior to chasing with ct-dye) is 1.0 µM and 1.0 ± 0.03 µM. The “CP50 after 4 h incubation” value in data set [3] (ct-peptides incubated with cells in Opti-MEM for 4 h prior to chasing with ct-dye) is 0.22 µM and 0.22 ± 0.02 µM. Also, the “−log Pe” value in data set [1] was over 8. The “intact compound remaining in HeLa lysate” value in “in vitro” (4 h) is reported as “almost no intact macrocycle”. Also, the share remaining (in general, the share of the starting amount still present when the sample was taken) at 1 h, 150 μM in “in vitro” (human, cells or culture medium, pH 8) is about 50%. As to `NC(=O)N1c2ccccc2C=Cc2ccccc21` [carbamazepine, reference compound], the “-Log Papp” value in data set [1] is given as 5.7–5.8.
